How the values were obtained:
Assay type in all cases: biochemical
[1] = molecular target: T1, baculovirus-expressed human trkA cytoplasmic domain (Homo sapiens, UniProt P04629); assay: trkA tyrosine kinase inhibition assay (ELISA-based); settings: 1 uM compound; 40 μM ATP
T1 construct: baculovirus-expressed human trkA cytoplasmic domain; host or cells: baculovirus expression system
Description: Inhibition of trkA Tyrosine Kinase Activity
Selected heterocyclic substituted pyrazolones were tested for their ability to inhibit the kinase activity of baculovirus-expressed human trkA cytoplasmic domain using an ELISA-based assay as previously described (Angeles et al., Anal. Biochem. 236: 49-55, 1996). Briefly, a 96-well microtiter plate was coated with substrate solution (recombinant human phospholipase C-γl/glutathione S-transferase fusion protein (Rotin et al., EMBO J., 11: 559-567, 1992). Inhibition studies were performed in 100 μl assay mixtures containing 50 mM Hepes, pH 7.4, 40 μM ATP, 10 mM MnCl2, 0.1% BSA, 2% DMSO, and various concentrations of inhibitor. The reaction was initiated by addition of trkA kinase and allowed to proceed for 15 minutes at 37° C. An antibody to phosphotyrosine (UBI) was then added, followed by a secondary enzyme-conjugated antibody, alkaline phosphatase-labelled goat anti-mouse IgG (Bio-Rad). The activity of the bound enzyme was measured via an amplified detection system (Gibco-BRL). Inhibition data were analyzed using the sigmoidal dose-response (variable slope) equation in GraphPad Prism.

[2] = molecular target: T2, recombinant human baculovirus-expressed VEGFR1 cytoplasmic domain (Homo sapiens, UniProt P17948); assay: VEGFR1 kinase inhibition assay (ELISA-based, time-resolved fluorescence); settings: 1 uM compound; 30 μM ATP
T2 construct: recombinant human baculovirus-expressed VEGFR1 cytoplasmic domain; host or cells: baculovirus expression system
T2 sequence (P17948 781-1338 limits assumed): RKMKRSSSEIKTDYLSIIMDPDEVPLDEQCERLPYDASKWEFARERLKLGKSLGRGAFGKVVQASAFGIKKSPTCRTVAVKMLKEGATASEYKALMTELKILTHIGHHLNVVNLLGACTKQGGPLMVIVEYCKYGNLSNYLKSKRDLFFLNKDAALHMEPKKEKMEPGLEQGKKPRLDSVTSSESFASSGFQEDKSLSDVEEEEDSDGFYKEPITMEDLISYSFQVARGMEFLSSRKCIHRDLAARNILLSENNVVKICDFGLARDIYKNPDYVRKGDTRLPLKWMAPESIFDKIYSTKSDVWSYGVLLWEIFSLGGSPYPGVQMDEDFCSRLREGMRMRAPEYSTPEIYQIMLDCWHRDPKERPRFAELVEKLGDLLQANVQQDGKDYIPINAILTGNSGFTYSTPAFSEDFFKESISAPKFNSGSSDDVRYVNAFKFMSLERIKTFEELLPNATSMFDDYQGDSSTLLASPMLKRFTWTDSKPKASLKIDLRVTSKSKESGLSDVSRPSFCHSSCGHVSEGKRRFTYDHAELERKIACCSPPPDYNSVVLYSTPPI
Description: Inhibition of Vascular Endothelial Growth Factor Receptor-1 Kinase Activity
The VEGFR1 kinase activity assay utilizes an ELISA-based format in a 96-well FluoroNUNC Maxisorp plate with a time-resolved fluorescence readout. The plate was coated with 100 μl/well of substrate solution (recombinant human PLC-γ/GST) at a concentration of 40 μg/ml in Tris buffered saline (TBS). The VEGFR1 activity was assayed in 100-μl assay micture containing 50 mM HEPES (pH 7.4), 30 μM ATP, 10 mM MnCl2, 0.1% BSA, 2% DMSO, and 300 ng/ml prephosphorylated recombinant human baculovirus-expressed VEGFR1 cytoplasmic domain. Compounds were screened for inhibition of the VEGFR1 kinase activity at a concentration of 1 μM. The kinase reaction was allowed to proceed at 37° C. for 15 minutes. The detection antibody, europium-labeled anti-phosphotyrosine antibody (Wallac #CR04-100), was added at 1:5000 dilution in block buffer (3% BSA in TBST). After a 1-hour incubation at 37° C., 100 μl of enhancement solution (Wallac #1244-105) was added and the plate was gently agitated. After 5 min, the fluorescence of the resulting solution was measured using the BMG Fluostar (Model # 403).

[3] = molecular target: T3, recombinant human baculovirus-expressed FGFR1 cytoplasmic domain (Homo sapiens, UniProt P11362); assay: FGFR1 kinase inhibition assay (ELISA-based, time-resolved fluorescence); settings: 1 uM compound; 20 μM ATP
T3 construct: recombinant human baculovirus-expressed FGFR1 cytoplasmic domain; host or cells: baculovirus expression system
T3 sequence (P11362 398-822 limits assumed): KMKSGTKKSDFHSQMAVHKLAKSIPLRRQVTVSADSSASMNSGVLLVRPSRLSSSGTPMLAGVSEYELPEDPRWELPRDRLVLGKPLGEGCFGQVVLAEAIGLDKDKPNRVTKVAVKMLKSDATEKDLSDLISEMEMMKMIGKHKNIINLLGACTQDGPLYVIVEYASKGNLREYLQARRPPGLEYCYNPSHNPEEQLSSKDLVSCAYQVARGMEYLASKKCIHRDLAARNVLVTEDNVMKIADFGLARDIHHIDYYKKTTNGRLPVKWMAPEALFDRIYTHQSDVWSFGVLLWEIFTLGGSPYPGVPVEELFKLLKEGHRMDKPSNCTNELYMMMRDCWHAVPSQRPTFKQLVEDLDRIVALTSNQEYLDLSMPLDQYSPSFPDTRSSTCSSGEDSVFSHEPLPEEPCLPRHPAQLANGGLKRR
Description: Inhibition of Fibroblast Growth Factor Receptor-1 (FGFR1) Kinase Activity
The FGFR1 kinase activity was measured using an ELISA-based format in a 96-well FluoroNUNC Maxisorp plate with a time-resolved fluorescence readout as described for trkA kinase. The plate was coated with 100 μl/well of substrate solution (recombinant human PLC-γ/GST) at a concentration of 10 μg/ml in Tris buffered saline (TBS). The FDGFR1 activity was assayed in 100-μl assay micture containing 50 mM HEPES (pH 7.4), 20 μM ATP, 10 mM MnCl2, 0.1% BSA, 2% DMSO, and 15 ng/ml recombinant human baculovirus-expressed FGFR1 cytoplasmic domain (prephosphorylated prior to use). Compounds were screened for inhibition of the FGFR1 kinase activity at a conentration of 1 μM. The kinase reaction was allowed to proceed at 37° C. for 15 minutes. The detection antibody, europium-labeled anti-phosphotyrosine antibody (Wallace #CR04-100), was added at 1:5000 dilution in block buffer (3% BSA in TBST). After a 1-hour incubation at 37° C., 100 μl of enhancement solution (Wallac #1244-105) and the plate was gently agitated. After 5 min, the fluorescence of the resulting solutions measured using the BMG Fluostar (Model # 403).

baculoviral GST-MLK3KD = molecular target: T4, baculoviral GST-MLK3KD (Homo sapiens, UniProt Q16584); assay: Mixed Lineage Kinase-3 inhibition assay (Millipore Multiscreen plate, 32P); settings: 1 uM compound; 100 μM ATP
T4 construct: 2 μg/ml of baculoviral GST-MLK3KD; GST (N); host or cells: baculovirus expression system
T4 sequence (Q16584 117-379 limits assumed): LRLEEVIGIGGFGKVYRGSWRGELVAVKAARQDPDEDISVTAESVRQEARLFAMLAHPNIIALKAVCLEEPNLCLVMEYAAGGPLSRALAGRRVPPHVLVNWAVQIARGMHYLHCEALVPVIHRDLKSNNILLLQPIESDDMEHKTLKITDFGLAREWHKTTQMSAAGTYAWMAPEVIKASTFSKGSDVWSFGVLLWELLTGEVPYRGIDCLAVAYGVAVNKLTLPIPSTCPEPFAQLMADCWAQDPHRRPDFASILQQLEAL
Description: Inhibition of Mixed Lineage Kinase-3 Activity
Assays were performed using the Millipore Multiscreen plate format as described for MLK1. Briefly, each 50-μl assay mixture contained 20 mM Hepes, pH 7, 1 mM EGTA, 10 mM MgCl2, 1 mM DTT, 25 mM β-glycerophosphate, 100 μM ATP, 0.25 μCi [γ-^32P]ATP, 0.1% BSA, 500 μg/ml myelin basic protein (UBI #13-104), 2% DMSO, various concentrations of test compound, and 2 μg/ml of baculoviral GST-MLK3KD. Samples were incubated for 15 min at 37° C. The reaction was stopped by adding ice cold 50% TCA and the proteins were allowed to precipitate for 30 min at 4° C. The plates were then washed with ice cold 25% TCA. Supermix scintillation cocktail was added, and the plates were allowed to equilibrate for 1-2 hours prior to counting.

T1 sequence (P04629 440-796 limits assumed): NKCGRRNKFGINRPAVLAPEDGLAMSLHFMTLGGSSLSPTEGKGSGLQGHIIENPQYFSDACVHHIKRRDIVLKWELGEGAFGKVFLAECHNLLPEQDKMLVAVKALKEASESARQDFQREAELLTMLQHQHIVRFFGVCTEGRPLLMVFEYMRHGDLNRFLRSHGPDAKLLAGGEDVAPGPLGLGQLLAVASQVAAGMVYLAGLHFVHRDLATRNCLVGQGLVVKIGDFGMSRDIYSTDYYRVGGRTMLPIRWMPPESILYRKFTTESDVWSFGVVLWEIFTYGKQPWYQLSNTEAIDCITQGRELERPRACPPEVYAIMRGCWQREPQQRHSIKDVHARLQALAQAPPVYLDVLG

| Compound | trkA % inhibition @ 1 uM [1] | VEGFR-1 kinase % inhibition @ 1 uM [2] | FGFR1 % inhibition @ 1 uM [3] | MLK-3 Kinase % inhibition @ 1 uM (baculoviral GST-MLK3KD) |
| --- | --- | --- | --- | --- |
| O=C1NN=C(c2cc3ccccc3o2)C1=Cc1c[nH]c2ccccc12 [Compound 58] | 30% | 51% | 24% | 43% |
| Cn1cc(C=C2C(=O)NN=C2c2cc3ccccc3o2)c2ccccc21 [Compound 59] | 40% | −2% | 29% | 47% |
| Cn1cc(C=C2C(=O)NN=C2c2nccs2)c2ccccc21 [Compound 60] | 71% | 63% | 66% | 58% |
| Cc1cc(C)c(C=C2C(=O)NN=C2c2cccs2)[nH]1 [Compound 61] | 35% | 44% | 35% | 72% |
| O=C1NN=C(c2cccs2)C1=Cc1c[nH]c2ccccc12 [Compound 62] | 45% | 38% | 37% | 45% |
| Cn1cc(C=C2C(=O)NN=C2c2cccs2)c2ccccc21 [Compound 63] | 60% | 40% | 38% | 78% |
| N#CCCn1cc(C=C2C(=O)NN=C2c2nccs2)c2ccccc21 [Compound 64] | 10% | 26% | 7% | 15% |
| N#CCCn1cc(C=C2C(=O)NN=C2c2ccoc2)c2ccccc21 [Compound 65] | 22% | 22% | 21% | 7% |
| N#CCCn1cc(C=C2C(=O)NN=C2c2cccs2)c2ccccc21 [Compound 66] | 32% | 24% | 29% | 11% |
| N#CCCn1cc(C=C2C(=O)NN=C2c2ccco2)c2ccccc21 [Compound 67] | 40% | 22% | 23% | 8% |
| O=C1NN=C(c2ccoc2)C1=Cc1cn(Cc2ccccc2)c2ccccc12 [Compound 68] | 42% | 11% | 27% | 20% |
| O=C1NN=C(c2ccco2)C1=Cc1cn(Cc2ccccc2)c2ccccc12 [Compound 69] | 35% | 5% | 30% | 9% |
